The values that follow are results of earlier work, collected in publication PMC5590095 (Chemical Science, 2017).

The test system of this series is tubulin.

As to Celogentin C, the “inhibitory activity against tubulin polymerization” value is listed as “inhibitory activity against tubulin polymerization”.
